According to PubChem BioAssay AID1259407 (Chemical Carcinogenesis Research Information System (CCRIS), 2018):
The source made the active and inactive calls. No rule for the calls is given here.

System: CCRIS mutagenicity, Ames/micronucleus/aberration tests
Test: CCRIS mutagenicity studies
[1] = Test System: AMES SALMONELLA TYPHIMURIUM, Strain/Indicator: TA98, Metabolic Activation: NONE, Method: STANDARD PLATE
[2] = Test System: AMES SALMONELLA TYPHIMURIUM, Strain/Indicator: TA98, Metabolic Activation: RAT, LIVER, S-9, AROCLOR 1254, Method: STANDARD PLATE
[3] = Test System: AMES SALMONELLA TYPHIMURIUM, Strain/Indicator: TA100, Metabolic Activation: NONE, Method: STANDARD PLATE
[4] = Test System: AMES SALMONELLA TYPHIMURIUM, Strain/Indicator: TA100, Metabolic Activation: RAT, LIVER, S-9, AROCLOR 1254, Method: STANDARD PLATE
[5] = Test System: AMES SALMONELLA TYPHIMURIUM, Strain/Indicator: TA1535, Metabolic Activation: NONE, Method: STANDARD PLATE
[6] = Test System: AMES SALMONELLA TYPHIMURIUM, Strain/Indicator: TA1537, Metabolic Activation: NONE, Method: STANDARD PLATE
[7] = Test System: AMES SALMONELLA TYPHIMURIUM, Strain/Indicator: TA1537, Metabolic Activation: RAT, LIVER, S-9, AROCLOR 1254, Method: STANDARD PLATE
[8] = Test System: AMES SALMONELLA TYPHIMURIUM, Strain/Indicator: TA1538, Metabolic Activation: NONE, Method: STANDARD PLATE
[9] = Test System: AMES SALMONELLA TYPHIMURIUM, Strain/Indicator: TA1538, Metabolic Activation: RAT, LIVER, S-9, AROCLOR 1254, Method: STANDARD PLATE
[10] = Test System: AMES SALMONELLA TYPHIMURIUM, Strain/Indicator: TA98, Metabolic Activation: S-9, Method: STANDARD PLATE
[11] = Test System: AMES SALMONELLA TYPHIMURIUM, Strain/Indicator: TA100, Metabolic Activation: S-9, Method: STANDARD PLATE
[12] = Test System: AMES SALMONELLA TYPHIMURIUM, Strain/Indicator: TA1535, Metabolic Activation: S-9, Method: STANDARD PLATE
[13] = Test System: AMES SALMONELLA TYPHIMURIUM, Strain/Indicator: TA1537, Metabolic Activation: S-9, Method: STANDARD PLATE
[14] = Test System: AMES SALMONELLA TYPHIMURIUM, Strain/Indicator: TA98, Metabolic Activation: NONE, Method: PREINCUBATION
[15] = Test System: AMES SALMONELLA TYPHIMURIUM, Strain/Indicator: TA100, Metabolic Activation: NONE, Method: PREINCUBATION
[16] = Test System: AMES SALMONELLA TYPHIMURIUM, Strain/Indicator: TA100, Metabolic Activation: RAT, LIVER, S-9, AROCLOR 1254, Method: PREINCUBATION
[17] = Test System: AMES SALMONELLA TYPHIMURIUM, Strain/Indicator: TA97, Metabolic Activation: NONE, Method: PREINCUBATION

## O=[N+]([O-])C1=Cc2c3ccc4ccccc4c3cc3cccc1c23
[1]
  mutagenic call: active; positive
[2]
  mutagenic call: active; positive
[3]
  mutagenic call: inactive; negative
[4]
  mutagenic call: inactive; negative
[5]
  mutagenic call: inactive; negative
Test System: AMES SALMONELLA TYPHIMURIUM, Strain/Indicator: TA1535, Metabolic Activation: RAT, LIVER, S-9, AROCLOR 1254, Method: STANDARD PLATE
  mutagenic call: inactive; negative
[6]
  mutagenic call: active; positive
[7]
  mutagenic call: active; positive
[8]
  mutagenic call: active; positive
[9]
  mutagenic call: inactive; negative

## Nc1ccc2ccc3cccc4ccc1c2c34
End Point: IN VITRO CHROMOSOMAL ABERRATIONS, Test System: CHINESE HAMSTER LUNG (CHL) CELLS, Metabolic Activation: NONE
  mutagenic call: inactive; negative
Test System: AMES SALMONELLA TYPHIMURIUM, Strain/Indicator: TA98(1,8-DNP6), Metabolic Activation: NONE, Method: STANDARD PLATE
  mutagenic call: active; positive
Test System: AMES SALMONELLA TYPHIMURIUM, Strain/Indicator: TA98(1,8-DNP6), Metabolic Activation: RAT, LIVER, S-9, AROCLOR 1254, Method: STANDARD PLATE
  mutagenic call: active; positive
Test System: AMES SALMONELLA TYPHIMURIUM, Strain/Indicator: TA98(NR), Metabolic Activation: NONE, Method: STANDARD PLATE
  mutagenic call: active; positive
Test System: AMES SALMONELLA TYPHIMURIUM, Strain/Indicator: TA98(NR), Metabolic Activation: RAT, LIVER, S-9, AROCLOR 1254, Method: STANDARD PLATE
  mutagenic call: active; positive
[1]
  mutagenic call: active; positive
Test System: AMES SALMONELLA TYPHIMURIUM, Strain/Indicator: TA98, Metabolic Activation: RAT, LIVER, S-9, AROCLOR 1254 (2 OR 4%), Method: STANDARD PLATE
  mutagenic call: active; positive
[3]
  mutagenic call: inactive; negative
Test System: AMES SALMONELLA TYPHIMURIUM, Strain/Indicator: TA100, Metabolic Activation: RAT, LIVER, S-9, AROCLOR 1254 (4%), Method: STANDARD PLATE
  mutagenic call: inactive; negative
[4]
  mutagenic call: active; positive
Test System: AMES SALMONELLA TYPHIMURIUM, Strain/Indicator: TA1535, Metabolic Activation: RAT, LIVER, S-9, AROCLOR 1254 (4%), Method: STANDARD PLATE
  mutagenic call: inactive; negative
Test System: AMES SALMONELLA TYPHIMURIUM, Strain/Indicator: TA1537, Metabolic Activation: RAT, LIVER, S-9, AROCLOR 1254 (4%), Method: STANDARD PLATE
  mutagenic call: inactive; negative
[7]
  mutagenic call: active; positive
[8]
  mutagenic call: inactive; negative
[9]
  mutagenic call: active; positive

## O=C(CCBr)N1CCN(C(=O)CCBr)CC1
[1]
  mutagenic call: inactive; negative
[3]
  mutagenic call: active; positive
Test System: AMES SALMONELLA TYPHIMURIUM, Strain/Indicator: TA102, Metabolic Activation: NONE, Method: STANDARD PLATE
  mutagenic call: inactive; negative
[6]
  mutagenic call: inactive; negative
Test System: E. COLI, Strain/Indicator: WP2 (HCR), Metabolic Activation: NONE, Method: STANDARD PLATE
  mutagenic call: active; positive

## Clc1cccc2cc3ccccc3cc12
[1]
  mutagenic call: inactive; negative
[2]
  mutagenic call: inactive; negative
[3]
  mutagenic call: inactive; negative
[4]
  mutagenic call: inactive; negative

## CC(=O)N(C)c1ccc(N=Nc2ccc(N(C)C(C)=O)cc2)cc1
Test System: AMES SALMONELLA TYPHIMURIUM, Strain/Indicator: TA98, Metabolic Activation: RAT, LIVER, S-9, POLYCHLORINATED BIPHENYLS, Method: PREINCUBATION
  mutagenic call: inactive; negative
Test System: AMES SALMONELLA TYPHIMURIUM, Strain/Indicator: TA100, Metabolic Activation: RAT, LIVER, S-9, POLYCHLORINATED BIPHENYLS, Method: PREINCUBATION
  mutagenic call: inactive; negative

## C=C(C#N)C(=O)OCC(C)C
[3]
  mutagenic call: inactive; negative
[4]
  mutagenic call: inactive; negative

## Nc1snc2cc(Cl)ccc12
[1]
  mutagenic call: inactive; negative
[10]
  mutagenic call: inactive; negative
[3]
  mutagenic call: inactive; negative
[11]
  mutagenic call: active; positive
[5]
  mutagenic call: inactive; negative
[12]
  mutagenic call: inactive; negative
[6]
  mutagenic call: inactive; negative
[13]
  mutagenic call: active; positive

## O=NN1C(C(=O)O)CSC1C(O)C(O)C(O)C(O)CO (stereo not drawn)
[14]
  mutagenic call: inactive; negative
[1]
  mutagenic call: inactive; negative
Test System: AMES SALMONELLA TYPHIMURIUM, Strain/Indicator: TA98, Metabolic Activation: RAT, LIVER, S-9, AROCLOR 1254, Method: PREINCUBATION
  mutagenic call: inactive; negative
[2]
  mutagenic call: inactive; negative
[15]
  mutagenic call: inactive; negative
[3]
  mutagenic call: inactive; negative
[16]
  mutagenic call: inactive; negative
[4]
  mutagenic call: inactive; negative

## O=c1ccn([C@H]2C[C@H](O)[C@@H](CO)O2)c(=O)[nH]1
[17]
  mutagenic call: inactive; negative
Test System: AMES SALMONELLA TYPHIMURIUM, Strain/Indicator: TA97, Metabolic Activation: RAT, LIVER, S-9, AROCLOR 1254, Method: PREINCUBATION
  mutagenic call: inactive; negative
[15]
  mutagenic call: inactive; negative
[16]
  mutagenic call: inactive; negative
Test System: CHINESE HAMSTER V-79, Strain/Indicator: V-79/8-AZAGUANINE, Metabolic Activation: NONE
  mutagenic call: inactive; negative

## CCN(C(=O)CCCCl)c1snc2ccccc12
[1]
  mutagenic call: inactive; negative
[10]
  mutagenic call: inactive; negative
[3]
  mutagenic call: inactive; negative
[11]
  mutagenic call: inactive; negative
[5]
  mutagenic call: inactive; negative
[12]
  mutagenic call: inactive; negative
[6]
  mutagenic call: inactive; negative
[13]
  mutagenic call: inactive; negative

## Cc1c2ccccc2c(CBr)c2ccccc12
[1]
  mutagenic call: active; positive
[3]
  mutagenic call: inactive; negative

## O[C@@H]1[C@H]2O[C@H]2c2c(ccc3c4ccccc4c4ccccc4c23)[C@H]1O
[17]
  mutagenic call: active; positive
[14]
  mutagenic call: active; positive
[15]
  mutagenic call: active; positive
Test System: AMES SALMONELLA TYPHIMURIUM, Strain/Indicator: TA104, Metabolic Activation: NONE, Method: PREINCUBATION
  mutagenic call: active; positive
Test System: CHINESE HAMSTER V-79, Strain/Indicator: V-79/6-THIOGUANINE, Metabolic Activation: NONE
  mutagenic call: active; positive

## CN=C1C=CC(=C(c2ccc(NC)cc2)c2ccc(N(C)C)cc2)C=C1
Test System: AMES SALMONELLA TYPHIMURIUM, Strain/Indicator: TA97, Metabolic Activation: NONE, Method: STANDARD PLATE
  mutagenic call: inactive; negative
Test System: AMES SALMONELLA TYPHIMURIUM, Strain/Indicator: TA97, Metabolic Activation: RAT, LIVER, S-9, AROCLOR 1254, Method: STANDARD PLATE
  mutagenic call: inactive; negative
[1]
  mutagenic call: inactive; negative
[2]
  mutagenic call: inactive; negative
[3]
  mutagenic call: inactive; negative
[4]
  mutagenic call: inactive; negative
Test System: AMES SALMONELLA TYPHIMURIUM, Strain/Indicator: TA104, Metabolic Activation: NONE, Method: STANDARD PLATE
  mutagenic call: inactive; negative
Test System: AMES SALMONELLA TYPHIMURIUM, Strain/Indicator: TA104, Metabolic Activation: RAT, LIVER, S-9, AROCLOR 1254, Method: STANDARD PLATE
  mutagenic call: inactive; negative

## CCCCN(CO)N=O
Test System: CHINESE HAMSTER V-79, Strain/Indicator: V-79/OUABAIN, Metabolic Activation: NONE
  mutagenic call: active; positive
